# Laboratory results reported in patent US6737383B1, “Herbicidal oxadiazolidines” (priority 1999, dated 2004).
# Key:
# surinam grass = experiment: Test B pre/postemergence surinam grass; format: in vivo, Brachiaria decumbens
# Method in brief: (§1)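 Test chemicals in a non-phytotoxic solvent mixture with surfactant were sprayed preemergence onto planted seeds and postemergence onto plants 2 to 18 cm tall (1- to 4-leaf stage). After twelve to sixteen days in a greenhouse, injury was visually rated against untreated controls from 0 (no effect) to 10 (complete control).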
# pigweed = experiment: Test B pre/postemergence pigweed; format: in vivo, Amaranthus retroflexus
# Method in brief: as §1
# purple nutsedge = experiment: Test B pre/postemergence purple nutsedge; format: in vivo, Cyperus rotundus
# Method in brief: as §1
# wild oat = experiment: Test B pre/postemergence wild oat; format: in vivo, Avena fatua
# Method in brief: as §1
# rape = experiment: Test B pre/postemergence rape; format: in vivo, Brassica napus
# Method in brief: as §1
# giant foxtail = experiment: Test B pre/postemergence giant foxtail; format: in vivo, Setaria faberii
# Method in brief: as §1
# crabgrass = experiment: Test B pre/postemergence crabgrass; format: in vivo, Digitaria sanguinalis
# Method in brief: as §1
# duck salad = experiment: Test B flood test duck salad; format: in vivo, Heteranthera limosa
# Method in brief: (§2)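 Each value is a visual injury score relative to controls, with 10 meaning complete control and 0 no effect. Evaluation took place twelve to sixteen days after the 2-leaf-stage plants were treated and kept in the greenhouse.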
# bedstraw = experiment: Test B pre/postemergence bedstraw; format: in vivo, Galium aparine
# Method in brief: as §1
# soybean = experiment: Test B pre/postemergence soybean; format: in vivo, Glycine max
# Method in brief: as §1
# corn = experiment: Test B pre/postemergence corn; format: in vivo, Zea mays
# Method in brief: as §1
# velvetleaf = experiment: Test B pre/postemergence velvetleaf; format: in vivo, Abutilon theophrasti
# Method in brief: as §1
# morningglory = experiment: Test B pre/postemergence morningglory; format: in vivo, Ipomoea hederacea
# Method in brief: as §1
# blackgrass = experiment: Test B pre/postemergence blackgrass; format: in vivo, Alopecurus myosuroides
# Method in brief: as §1
# rice = experiment: Test B flood test rice; format: in vivo, Oryza sativa
# Method in brief: as §2
# wheat = experiment: Test B pre/postemergence wheat; format: in vivo, Triticum aestivum
# Method in brief: as §1
# [1] = Preemergence, Rate 62 g/ha, scale of 0 to 10 where 0 is no effect and 10 is complete control
# [2] = Preemergence, Rate 250 g/ha, scale of 0 to 10 where 0 is no effect and 10 is complete control
# [3] = Preemergence, Rate 500 g/ha, scale of 0 to 10 where 0 is no effect and 10 is complete control
# [4] = Rate 62 g/ha, Postemergence, scale 0 to 10 (0 no effect, 10 complete control)
# [5] = Rate 125 g/ha, Postemergence, scale of 0 to 10 where 0 is no effect and 10 is complete control
# [6] = Rate 125 g/ha, Preemergence, scale of 0 to 10 where 0 is no effect and 10 is complete control
# [7] = Rate 250 g/ha, Postemergence, scale of 0 to 10 where 0 is no effect and 10 is complete control
# [8] = Rate 500 g/ha, Postemergence, scale 0 to 10, 0 no effect, 10 complete control
# [9] = Rate 62 g/ha, headed Pre-emergence (flood test species), scale 0 to 10 (0 no effect, 10 complete control)
# [10] = Rate 125 g/ha, Pre-emergence, flood test species, scale 0 to 10 where 0 is no effect and 10 is complete control
# [11] = Rate 250 g/ha, Pre-emergence, flood-test species, scale 0 to 10, 0 is no effect, 10 is complete control
# [12] = Rate 500 g/ha, Pre-emergence, flood test species, scale 0 to 10 (0 no effect, 10 complete control)
structure (smiles),measurement,setting,value
CC(C)N(C(=O)n1oc(=O)n(C2CCCC2)c1=O)c1ccccc1 [Compound 283],B. signalgrass plant response rating,surinam grass; [1],6
same,B. signalgrass plant response rating,surinam grass; [2],10
same,"Plant response rating, B. signalgrass",surinam grass; [3],10
same,B. signalgrass plant response rating,surinam grass; [4],0
same,B. signalgrass plant response rating,surinam grass; [5],0
same,B. signalgrass plant response rating,surinam grass; [6],10
same,"Plant response rating, B. signalgrass",surinam grass; [7],0
same,B. signalgrass plant response rating,surinam grass; [8],2
same,Redroot pigweed plant response rating,pigweed; [1],2
same,Redroot pigweed plant response rating,pigweed; [2],10
same,"Plant response rating, Redroot pigweed",pigweed; [3],10
same,Redroot pigweed plant response rating,pigweed; [4],4
same,Redroot pigweed plant response rating,pigweed; [5],4
same,Redroot pigweed plant response rating,pigweed; [6],6
same,"Plant response rating, Redroot pigweed",pigweed; [7],5
same,Redroot pigweed plant response rating,pigweed; [8],7
same,Nutsedge plant response rating,purple nutsedge; [1],0
same,Nutsedge plant response rating,purple nutsedge; [2],0
same,"Plant response rating, Nutsedge",purple nutsedge; [3],0
same,Nutsedge plant response rating,purple nutsedge; [4],0
same,Nutsedge plant response rating,purple nutsedge; [5],0
same,Nutsedge plant response rating,purple nutsedge; [6],0
same,"Plant response rating, Nutsedge",purple nutsedge; [7],0
same,Nutsedge plant response rating,purple nutsedge; [8],0
same,Wild oats plant response rating,wild oat; [1],0
same,Wild oats plant response rating,wild oat; [2],4
same,"Plant response rating, Wild oats",wild oat; [3],7
same,Wild oats plant response rating,wild oat; [4],0
same,Wild oats plant response rating,wild oat; [5],0
same,"Plant response rating, Wild oats",wild oat; [7],0
same,Wild oats plant response rating,wild oat; [8],0
same,Rape plant response rating,rape; [1],0
same,Rape plant response rating,rape; [2],2
same,"Plant response rating, Rape",rape; [3],8
same,Rape plant response rating,rape; [4],2
same,Rape plant response rating,rape; [5],3
same,"Plant response rating, Rape",rape; [7],4
same,Rape plant response rating,rape; [8],7
same,Giant foxtail plant response rating,giant foxtail; [1],8
same,Giant foxtail plant response rating,giant foxtail; [2],10
same,"Plant response rating, Giant foxtail",giant foxtail; [3],10
same,Giant foxtail plant response rating,giant foxtail; [4],0
same,Giant foxtail plant response rating,giant foxtail; [5],3
same,Giant foxtail plant response rating,giant foxtail; [6],9
same,"Plant response rating, Giant foxtail",giant foxtail; [7],4
same,Giant foxtail plant response rating,giant foxtail; [8],7
same,Crabgrass plant response rating,crabgrass; [1],2
same,"Plant response rating, Crabgrass",crabgrass; [3],7
same,Crabgrass plant response rating,crabgrass; [4],0
same,Crabgrass plant response rating,crabgrass; [5],0
same,Crabgrass plant response rating,crabgrass; [6],7
same,"Plant response rating, Crabgrass",crabgrass; [7],1
same,Crabgrass plant response rating,crabgrass; [8],1
same,Ducksalad plant response rating,duck salad; [9],0
same,Ducksalad plant response rating,duck salad; [10],0
same,Ducksalad plant response rating,duck salad; [11],0
same,Ducksalad plant response rating,duck salad; [12],0
same,Bedstraw plant response rating,bedstraw; [1],0
same,Bedstraw plant response rating,bedstraw; [2],1
same,"Plant response rating, Bedstraw",bedstraw; [3],9
same,Bedstraw plant response rating,bedstraw; [4],0
same,Bedstraw plant response rating,bedstraw; [5],1
same,Bedstraw plant response rating,bedstraw; [6],0
same,"Plant response rating, Bedstraw",bedstraw; [7],5
same,Bedstraw plant response rating,bedstraw; [8],6
same,Soybean plant response rating,soybean; [1],0
same,Soybean plant response rating,soybean; [2],0
same,"Plant response rating, Soybean",soybean; [3],0
same,Soybean plant response rating,soybean; [4],4
same,Soybean plant response rating,soybean; [5],4
same,Soybean plant response rating,soybean; [6],0
same,"Plant response rating, Soybean",soybean; [7],5
same,Soybean plant response rating,soybean; [8],7
same,Corn plant response rating,corn; [1],0
same,Corn plant response rating,corn; [2],0
same,"Plant response rating, Corn",corn; [3],0
same,Corn plant response rating,corn; [4],0
same,Corn plant response rating,corn; [5],0
same,Corn plant response rating,corn; [6],0
same,"Plant response rating, Corn",corn; [7],0
same,Corn plant response rating,corn; [8],0
same,Velvetleaf plant response rating,velvetleaf; [1],0
same,Velvetleaf plant response rating,velvetleaf; [2],5
same,"Plant response rating, Velvetleaf",velvetleaf; [3],7
same,Velvetleaf plant response rating,velvetleaf; [4],0
same,Velvetleaf plant response rating,velvetleaf; [5],0
same,Velvetleaf plant response rating,velvetleaf; [6],2
same,"Plant response rating, Velvetleaf",velvetleaf; [7],1
same,Velvetleaf plant response rating,velvetleaf; [8],3
same,Morningglory plant response rating,morningglory; [1],0
same,Morningglory plant response rating,morningglory; [2],0
same,"Plant response rating, Morningglory",morningglory; [3],0
same,Morningglory plant response rating,morningglory; [4],8
same,Morningglory plant response rating,morningglory; [5],9
same,Morningglory plant response rating,morningglory; [6],0
same,"Plant response rating, Morningglory",morningglory; [7],9
same,Morningglory plant response rating,morningglory; [8],10
same,Blackgrass plant response rating,blackgrass; [1],7
same,Blackgrass plant response rating,blackgrass; [2],9
same,"Plant response rating, Blackgrass",blackgrass; [3],10
same,Blackgrass plant response rating,blackgrass; [4],2
same,Blackgrass plant response rating,blackgrass; [5],6
same,Blackgrass plant response rating,blackgrass; [6],8
same,"Plant response rating, Blackgrass",blackgrass; [7],7
same,Blackgrass plant response rating,blackgrass; [8],7
same,Rice plant response rating,rice; [9],0
same,Rice plant response rating,rice; [10],0
same,Rice plant response rating,rice; [11],0
same,Rice plant response rating,rice; [12],1
same,Wheat plant response rating,wheat; [1],0
same,Wheat plant response rating,wheat; [2],1
same,"Plant response rating, Wheat",wheat; [3],6
same,Wheat plant response rating,wheat; [4],0
same,Wheat plant response rating,wheat; [5],0
same,Wheat plant response rating,wheat; [6],0
same,"Plant response rating, Wheat",wheat; [7],0
same,Wheat plant response rating,wheat; [8],0
